We go through 2 compounds from patent US12005051B2, “Topical roflumilast formulation having improved delivery and plasma half life” (ARCUTIS BIOTHERAPEUTICS, inc., priority 2017, dated 2024).

The nature of series [1]: dissolution of roflumilast in solvents and solvent:water blends at 25° C. Format: physicochemical. On the procedure:
(§1) 0.0092 grams of roflumilast (Batch A14367P from Interquim S.A.) was weighed into a liquid scintillation vial. An equimolar blend of hexylene glycol (lot 1AC0818, Spectrum) and distilled water was added dropwise with mixing to the vial containing roflumilast to produce a suspension of roflumilast in excess of the solubility limit. An equimolar blend is 86.7% hexylene glycol and 13.3% water on a weight/weight percent basis. After mixing each addition of hexylene glycol:water blend, the tightly capped vial was returned to a water bath set at 25° C. It required 0.7962 grams of equimolar Hexylene Glycol:Water blend to completely dissolve the 0.0092 grams of roflumilast and give a 1.14% roflumilast in equimolar Hexylene Glycol:Water (wt/wt %) solution. 0.0064 grams of roflumilast was added to this sample (labeled 12-3) to form a finely dispersed suspension at 25° C. and the vial was then stored undisturbed at about 15-18° C., protected from the light for six weeks. A sample of the roflumilast crystals was removed from the vial, placed on a microscope slide (with coverslip) and then examined using polarized light microscopy using a 10× objective (FIG. 2, microscope sample 20-3).
0.0111 grams of roflumilast (Batch A14367P from Interquim S.A.) was weighed into a liquid scintillation vial. An equimolar blend of […] (Transcutol P, lot 146063, Gattefosse) and distilled water was added dropwise with mixing to the vial containing roflumilast to produce a suspension of roflumilast in excess of the solubility limit. An equimolar blend is 88.3% DEGEE and 11.7% water on a weight/weight percent basis. After mixing each addition of DEGEE:water blend, the tightly capped vial was returned to a water bath set at 25° C. It required 0.2477 grams of equimolar DEGEE:Water blend to completely dissolve the 0.0111 grams of roflumilast and give a 4.29% roflumilast in equimolar DEGEE:Water (wt/wt %) solution. This sample (labeled 13-1) was a solution of roflumilast at 25° C. and the vial was then stored undisturbed at about 15-18° C., protected from the light for six weeks. Roflumilast crystals precipitated due to the cooler storage temperature. A sample of the roflumilast crystals was removed from the vial, placed on a microscope slide (with coverslip) and then examined using polarized light microscopy using a 10× objective (FIG. 3, microscope sample 20-2).
as §1, with “4×” for “10×”, “4,” for “2,”
0.0180 grams of roflumilast (Batch A14367P from Interquim S.A.) was weighed into a liquid scintillation vial. Polyethylene glycol 400 (lot 1 DE0880, Spectrum) was added dropwise with mixing to the vial containing roflumilast to produce a suspension of roflumilast in excess of the solubility limit. After mixing each addition of polyethylene glycol 400, the tightly capped vial was returned to a water bath set at 25° C. […]

The conditions of series [2]: cited from earlier work.
The conditions of series [3]: cited from earlier work; for mean plasma half-life: multiple 0.375 mg doses, immediate release oral roflumilast.
Series [4] is described as follows: clinical. Particulars: human, in vivo, po. On the procedure:
In addition to the consistent delivery of a suspended active ingredient from a topical product, successful treatment also depends on the elimination kinetics of the active ingredient. After a drug is absorbed into a patient's body, elimination begins thereby reducing the concentration over time. The half-life determines the length of time that the drug will be effective. […] Since the maximum plasma concentration (11.4 ng roflumilast per mL plasma) occurs for roflumilast about 1 hour after oral dosing, mean plasma concentration at the time of the first missed dose (1 day after the most recent dose) will be approximately 5.7 ng/mL (half the 11.4 ng/mL maximum plasma concentration). […] For oral roflumilast, use of a sustained release oral drug delivery system instead of the immediate release tablet studied by Huang, would be an example of extrinsic PK property modification to increase the adherence imperfection forgiveness of the product that would benefit the patient that missed one or more doses of roflumilast.

Details of series [5]: species or system human. Particulars: in vivo. On the procedure: A parallel group, double blind, vehicle-controlled study was performed in which ARQ-151 cream 0.3% (Formulation 3 in Example 5) or ARQ-151 cream 0.15% (Formulation 7) or vehicle cream is applied QD for 84 days to subjects with chronic plaque psoriasis involving between 2 and 20% body surface area (BSA).
A total of approximately 300 subjects were enrolled at approximately 30 study sites in the United States and Canada. Subjects were adult (≥18 y/o) males or females with chronic plaque psoriasis. […] Subjects with an IGA of ‘Mild’ (2) were limited to 20% of total enrollment. Subjects with an IGA of ‘Severe’ (4) were limited to 15% of total enrollment. Subjects had at least 2% and no more than 20% Body Surface Area (BSA) of chronic plaque psoriasis. All psoriasis lesions on a subject were treated including the face, trunk, genitals/skin folds, or limbs (excluding the scalp). The palms and soles were treated but were not counted towards any measurements of efficacy (IGA, BSA, mPASI). For subjects with intertriginous area involvement, and with severity of the intertriginous area lesions at least ‘mild’ (IGA≥2) at Baseline, ‘I-IGA’ score was recorded at weeks 4, 6, 8 and 12. The same IGA used for the primary endpoint (whole body) was also used for ‘intertriginous area lesion IGA score’ (I-IGA), but only intertriginous areas were evaluated for I-IGA, not the rest of the body.
(§2) Blood samples were taken from all subjects at all sites as pre-dose on Day 1 (baseline) and Weeks 4 (Day 29) and 12 (Day 85). The analysis of the PK data collected was performed with a CFR 21 Part 11 compliant software package (Phoenix WinNonlin version 8.1) which is in full compliance with ICH-GCP. Samples from all subjects within the PK population were evaluated. Any subject or data excluded from the PK analysis were identified, along with the reason for exclusion in this PK report. BSA was averaged based on Baseline, Week 2, Week 4, Week 6 and Week 8 measured BSA values, the screening values, Week 12 and Week 16 values, and any other unscheduled visit values were excluded. Four subjects participated in an optional phase at the completion of the study to assess the elimination of roflumilast and the N-oxide at the end of treatment, however only three had quantifiable concentrations of roflumilast and the N-oxide. From the three subjects, the terminal rate constant (lambda z, λz) was determined by the slope of the regression line of the natural log transformed concentrations vs. time data. The terminal half-life (t½) was calculated as: In(2)/λz.
(§3) Concentration values that are reported BLQ (<0.100 for roflumilast and N-oxide) were reported as below limit of quantification (BLQ) in the concentration data listings and considered non-numerical. Nonnumerical values were ignored in the concentration by nominal time summary statistics. Summary statistics (i.e. N, arithmetic mean, SD, CV %, minimum, median, maximum, geometric mean, geometric SD, 95% confidence intervals for both the arithmetic mean and geometric mean) were calculated for plasma concentrations for each analyte, nominal day and dose strength. All concentration and descriptive statistic values were reported to three significant figures.

A short description of series [6]: roflumilast crystal size by polarized light microscopy, dry and after six weeks storage in solvent blends. Format: physicochemical. Particulars: for crystal width: six weeks at room temperature.
Series [7] is described as follows: optional elimination phase assessment at end of treatment with ARQ-151 cream in psoriasis. The format is in vivo, human. The conditions noted are these: for half-life: human, plasma. On the procedure:
as §2, §3

Read-outs that look alike come from different tables or passages of the source.

Broadly, the half-life is the time in which the quantity being followed falls by half. As to `O=C(Nc1c(Cl)cncc1Cl)c1ccc(OC(F)F)c(OCC2CC2)c1` [roflumilast, N-(3,5-dichloropyrid-4-yl)-3-cyclopropylmethoxy-4-difluoromethoxybenzamid-e], in series [1] (0.28% roflumilast, 88.97% propylene glycol, 10.75% water, initially clear solution, 25° C.), the “storage time until fine roflumilast crystals were observed” value is 105 min. For the same compound, the “roflumilast concentration in solution” value in series [1] (dimethyl sulfoxide, 25° C.) worked out at 28.5%. Further, the “roflumilast concentration at complete dissolution” value was 4.29 wt/wt % in series [1] (equimolar DEGEE:Water, 25° C.); 1.14 wt/wt % in series [1] (equimolar Hexylene Glycol:Water, 25° C.); 3.18% in series [1] (polyethylene glycol 400, 25° C.). For the same compound, the “roflumilast concentration completely dissolved” value in series [1] (equimolar N-Methyl-2 pyrrolidone:water, 25° C.) came to 22.85%. The plasma half-life result in series [2] (after intravenous administration in humans) was “about 15 hours”; in series [2] (after oral administration) it was 17 to 30 h. Further, the mean plasma half-life entry in series [3] was “about 1 day”; in series [3] (mean of 12 subjects), 25.6 h. Further, the maximum plasma concentration in series [3] (multiple 0.375 mg oral doses) was 11.4 ng/mL. Also, the “time of maximum plasma concentration after oral dosing” value in series [3] (multiple 0.375 mg oral doses) was “about 1 hour”. The concentration at 1 day in series [4] is ~5.7 ng/mL. For the same compound, the concentration at 2 days in series [4] is ~2.8 ng/mL. Further, the concentration at 72 hours in series [4] was ~1.4 ng/mL. Besides, in series [5] (both, human), the “mean pre-dose plasma concentration, Day 29 versus Day 85” value is ≤ 2 fold. In addition, the “increase of roflumilast plasma pre-dose concentration between the 2-fold increase in dose strength” value is “about 1.6 fold” in series [5] (both, human, 29 day) and “about 1.7 fold” in series [5] (both, human, 85 day). In addition, the crystal width in series [6] (Sample 21-1, HG:NMP:Water (water mole fraction=1.2)) was found to be 0.02 mm; in series [6] (Sample 21-2, equimolar ethanol:water), 0.02 mm; in series [6] (Sample 21-3, equimolar PEG 400:water), 0.02 mm; in series [6] (Sample 21-5, equimolar propylene glycol:water) it was 0.02 mm. Further, in series [6] (equimolar N-methyl pyrrolidone:water compared to 12:4:3 (wt/wt/wt) hexylene glycol:N-methyl pyrrolidone:water), the “roflumilast crystalline growth, comparison” value is on record as “Dramatically greater roflumilast crystalline growth”. Besides, the half-life in series [7] (topical or ocular, three subjects, end of treatment, topical ARQ-151, read-out: Half-life values (converted)) was ~86.4 h; in series [7] (after topical administration of a formulation with self-emulsifying wax blend of dicetyl phosphate and ceteth-10 phosphate and a solvent, read-out: plasma half-life of roflumilast), 81.6 to 88.8 h.

Consider `O=C(Nc1c(Cl)c[n+]([O-])cc1Cl)c1ccc(OC(F)F)c(OCC2CC2)c1` [roflumilast N-oxide], for which, in series [5], the “mean N-oxide pre-dose plasma concentration relative to parent pre-dose plasma concentration” value was 5.3-6.2 fold and the “mean pre-dose plasma concentration, Day 29 versus Day 85” value is ≤ 2 fold. The Half-life values result in series [7] (three subjects, end of treatment, topical ARQ-151) was “around 3.6 days”.
